We go through one compound from patent US12257247B2 (Monte Rosa Therapeutics AG, priority 2023, dated 2025).

The target in the test is T1, VAV1 (Homo sapiens, UniProt P15498+Q96SW2).
T1 construct: A heterozygous VAV1 C-terminal HiBiT knock-in pool was generated at Monte Rosa Therapeutics from a clonal Jurkat cell; endogenous in cells; host or cells: Jurkat clone stably expressing LgBiT, homozygous GSPT1-G575N; heterozygous VAV1-HiBiT knock-in pool
The test can be described thus: VAV1 degradation activity, VAV1-HiBiT knock-in Jurkat luminescence assay (Example A, Table 1). In kind it is cell-based. The following applies: VAV1-HiBiT knock-in Jurkat cells, luminescence read at 6 and 24 hours; for Dmax: Jurkat. In outline: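 Jurkat cells carrying VAV1-HiBiT knock-in, plated in RPMI/10% FBS with Endurazine live-cell substrate and pre-incubated ~16 h at 37° C. Compound dosed from 10 μM stock; luminescence read 6 and 24 h later. Response normalised to plate negative/positive controls, EC50 from 3-parameter logistic fit (hillslope 1).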

The structures appear in SMILES notation. Like-named read-outs stand apart in the source and are kept apart here.

One may read the Dmax as the greatest extent of degradation seen. The DC50 is the concentration giving 50% degradation. Turning to `CC1CCN(Cc2ccc(-c3cccc(C4CCC(=O)NC4=O)c3Cl)cc2)C1=O` (stereo not shown) [Compound 290], the Dmax is, setting by setting: (read-out: VAV1 Dmax %) 92.9%; (read-out: VAV1 Dmax %, class) greater than 90%. Moreover, the DC50 reads like this: (read-out: VAV1 DC50) 16.9 nM; (read-out: VAV1 DC50 (nM), class) no more than 100 nM.
